Literature values as cited in patent US20040223971A1, “Composition and uses of galectin antagonists” (GlycoGenesys, Inc., priority 2003, published 2004).

Legend:
BT549 cells = BT549 cells without detectable galectin-3
[1] = tested on: galectin-3 transfected BT549 cells

For `O=c1c(-c2ccc(O)cc2)coc2cc(O)cc(O)c12` [genistein], the apoptosis induction (BT549 cells) is listed as “effectively induces apoptosis” and the “cell cycle arrest / apoptosis” value [1] is listed as “cell cycle arrest at the G(2)/M phase takes place without apoptosis induction”.
